Results from patent publication US20230150970A1, “AMINOPYRIMIDINE DERIVATIVES AND THEIR USE AS ARYL HYDROCARBON RECEPTOR MODULATORS” (DONG-A ST CO., LTD., priority 2020, published 2023).

target: T1, AhR (Homo sapiens, UniProt P35869); test: In Vitro Assay 1: XRE-luciferase reporter assay, antagonism in human cell line (HepG2); conditions: Assay 1: AhR-Luc Human Antagonism (IC50, nM), values marked *: kynurenine 50 μM, 6 hours
T1 sequence (P35869 11-848): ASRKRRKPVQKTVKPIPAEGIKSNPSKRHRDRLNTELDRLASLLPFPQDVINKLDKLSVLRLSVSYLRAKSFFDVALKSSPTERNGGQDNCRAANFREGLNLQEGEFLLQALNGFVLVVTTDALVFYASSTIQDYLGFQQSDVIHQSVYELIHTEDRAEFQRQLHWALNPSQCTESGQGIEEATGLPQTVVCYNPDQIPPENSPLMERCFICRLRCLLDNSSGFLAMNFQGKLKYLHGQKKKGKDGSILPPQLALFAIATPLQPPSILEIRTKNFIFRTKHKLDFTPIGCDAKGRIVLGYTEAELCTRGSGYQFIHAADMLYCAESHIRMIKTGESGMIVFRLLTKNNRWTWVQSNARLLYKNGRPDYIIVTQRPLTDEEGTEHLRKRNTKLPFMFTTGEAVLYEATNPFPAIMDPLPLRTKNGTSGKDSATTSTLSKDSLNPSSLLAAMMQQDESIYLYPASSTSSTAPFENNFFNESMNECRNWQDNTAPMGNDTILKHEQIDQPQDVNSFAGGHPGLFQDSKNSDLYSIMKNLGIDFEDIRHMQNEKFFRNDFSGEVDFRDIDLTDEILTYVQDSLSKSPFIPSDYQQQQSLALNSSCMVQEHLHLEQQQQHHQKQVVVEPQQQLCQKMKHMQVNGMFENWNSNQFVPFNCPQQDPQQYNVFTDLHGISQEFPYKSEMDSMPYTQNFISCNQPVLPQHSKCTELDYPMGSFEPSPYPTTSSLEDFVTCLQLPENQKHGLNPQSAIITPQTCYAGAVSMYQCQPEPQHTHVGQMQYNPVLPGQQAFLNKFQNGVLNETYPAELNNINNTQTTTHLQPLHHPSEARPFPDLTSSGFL

Row | IC50 [nM] | Structure (SMILES)
1 | > 1000 | CCC1CN(c2cc(-c3ccc(Cl)cc3)nc(-c3cccnc3)n2)CCN1 (stereo not drawn) [Example 109, 4-(4-chlorophenyl)-6-(3-ethylpiperazin-1-yl)-2-(pyridin-3-yl)pyrimidine]
2 | < 10 | CCOC(=O)N1CCN(c2cc(-c3ccc(Cl)cc3)nc(-c3cccnc3)n2)CC1 [Example 110, ethyl 4-(6-(4-chlorophenyl)-2-(pyridin-3-yl)pyrimidin-4-yl)piperazine-1-carboxylate]
3 | > 1000 | O=C(O)C1CN(c2cc(-c3ccc(Cl)cc3)nc(-c3cccnc3)n2)CCN1 (stereo not drawn) [Example 111, 4-(6-(4-chlorophenyl)-2-(pyridin-3-yl)pyrimidin-4-yl)piperazine-2-carboxylic acid]
4 | > 1000 | COC(=O)C1CNCCN1c1cc(-c2ccc(Cl)cc2)nc(-c2cccnc2)n1 (stereo not drawn) [Example 112, methyl 1-(6-(4-chlorophenyl)-2-(pyridin-3-yl)pyrimidin-4-yl)piperazine-2-carboxylate]
5 | > 1000 | Clc1ccc(-c2cc(N3CCNC[C@@H]3c3ccccc3)nc(-c3cccnc3)n2)cc1 [Example 113, (S)-4-(4-chlorophenyl)-6-(2-phenylpiperazin-1-yl)-2-(pyridin-3-yl)pyrimidine]
6 | > 1000 | Cc1ccccc1N1CCN(c2cc(-c3ccc(Cl)cc3)nc(-c3cccnc3)n2)CC1 [Example 114, 4-(4-chlorophenyl)-2-(pyridin-3-yl)-6-(4-(o-tolyl)piperazin-1-yl)pyrimidine]
7 | > 1000 | Cc1ccc(N2CCN(c3cc(-c4ccc(Cl)cc4)nc(-c4cccnc4)n3)CC2)cc1 [Example 115, 4-(4-chlorophenyl)-2-(pyridin-3-yl)-6-(4-(p-tolyl)piperazin-1-yl)pyrimidine]
8 | > 1000 | Cc1cccc(N2CCN(c3cc(-c4ccc(Cl)cc4)nc(-c4cccnc4)n3)CC2)c1 [Example 116, 4-(4-chlorophenyl)-2-(pyridin-3-yl)-6-(4-(m-tolyl)piperazin-1-yl)pyrimidine]
9 | 100 to 1000 | FC(F)(F)c1cccc(N2CCN(c3cc(-c4ccc(Cl)cc4)nc(-c4cccnc4)n3)CC2)c1 [Example 117, 4-(4-chlorophenyl)-2-(pyridin-3-yl)-6-(4-(3-(trifluoromethyl)phenyl)piperazin-1-yl)pyrimidine]
10 | > 1000 | Clc1ccc(-c2cc(N3CCN(c4ccc(Cl)c(Cl)c4)CC3)nc(-c3cccnc3)n2)cc1 [Example 119, 4-(4-chlorophenyl)-6-(4-(3,4-dichlorophenyl)piperazin-1-yl)-2-(pyridin-3-yl)pyrimidine]
11 | < 10 | COc1ccc(N2CCN(c3cc(-c4ccc(Cl)cc4)nc(-c4cccnc4)n3)CC2)cc1 [Example 120, 4-(4-chlorophenyl)-6-(4-(4-methoxyphenyl)piperazin-1-yl)-2-(pyridin-3-yl)pyrimidine]
12 | > 1000 | O=[N+]([O-])c1ccc(N2CCN(c3cc(-c4ccc(Cl)cc4)nc(-c4cccnc4)n3)CC2)cc1 [Example 121, 4-(4-chlorophenyl)-6-(4-(4-nitrophenyl)piperazin-1-yl)-2-(pyridin-3-yl)pyrimidine]
13 | 10 to 100 | CN1CCN(C2CCN(c3cc(-c4ccc(Cl)cc4)nc(-c4cccnc4)n3)C2)CC1 (stereo not drawn) [Example 122, 4-(4-chlorophenyl)-6-(3-(4-methylpiperazin-1-yl)pyrrolidin-1-yl)-2-(pyridin-3-yl)pyrimidine]
14 | > 1000 | Clc1ccc(-c2cc(N3CCN(C(c4ccccc4)c4ccccc4)CC3)nc(-c3cccnc3)n2)cc1 [Example 123, 4-(4-benzhydrylpiperazin-1-yl)-6-(4-chlorophenyl)-2-(pyridin-3-yl)pyrimidine]
15 | > 1000 | Clc1ccc(-c2cc(N3CCN(C(c4ccccc4)c4ccc(Cl)cc4)CC3)nc(-c3cccnc3)n2)cc1 (stereo not drawn) [Example 124, 4-(4-chlorophenyl)-6-(4-((4-chlorophenyl)(phenyl)methyl)piperazin-1-yl)-2-(pyridin-3-yl)pyrimidine]
16 | 100 to 1000 | Clc1ccc(-c2cc(N3CCC4(C=Cc5ccccc54)CC3)nc(-c3cccnc3)n2)cc1 [Example 125, 1′-(6-(4-chlorophenyl)-2-(pyridin-3-yl)pyrimidin-4-yl)spiro[indene-1,4′-piperidine]]
17 | > 1000 | Clc1ccc(-c2cc(NC3CCNC3)nc(-c3cccnc3)n2)cc1 (stereo not drawn) [Example 126, 6-(4-chlorophenyl)-2-(pyridin-3-yl)-N-(pyrrolidin-3-yl)pyrimidin-4-amine]
18 | > 1000 | Clc1ccc(-c2cc(N[C@@H]3CCNC3)nc(-c3cccnc3)n2)cc1 [Example 127, (R)-6-(4-chlorophenyl)-2-(pyridin-3-yl)-N-(pyrrolidin-3-yl)pyrimidin-4-amine]
19 | > 1000 | Clc1ccc(-c2cc(NC[C@@H]3CCNC3)nc(-c3cccnc3)n2)cc1 [Example 128, (R)-6-(4-chlorophenyl)-2-(pyridin-3-yl)-N-(pyrrolidin-3-ylmethyl)pyrimidin-4-amine]
20 | > 1000 | Clc1ccc(-c2cc(NCCN3CCCC3)nc(-c3cccnc3)n2)cc1 [Example 129, 6-(4-chlorophenyl)-2-(pyridin-3-yl)-N-(2-(pyrrolidin-1-yl)ethyl)pyrimidin-4-amine]
21 | > 1000 | Clc1ccc(-c2cc(NCCCN3CCCC3)nc(-c3cccnc3)n2)cc1 [Example 130, 6-(4-chlorophenyl)-2-(pyridin-3-yl)-N-(3-(pyrrolidin-1-yl)propyl)pyrimidin-4-amine]
22 | > 1000 | CN1CCCC1CCNc1cc(-c2ccc(Cl)cc2)nc(-c2cccnc2)n1 (stereo not drawn) [Example 131, 6-(4-chlorophenyl)-N-(2-(1-methylpyrrolidin-2-yl)ethyl)-2-(pyridin-3-yl)pyrimidin-4-amine]
23 | 100 to 1000 | Clc1ccc(-c2cc(NC3CCN(Cc4ccccc4)C3)nc(-c3cccnc3)n2)cc1 (stereo not drawn) [Example 132, N-(1-benzylpyrrolidin-3-yl)-6-(4-chlorophenyl)-2-(pyridin-3-yl)pyrimidin-4-amine]
24 | > 1000 | O[C@@H]1CNC[C@@H]1Nc1cc(-c2ccc(Cl)cc2)nc(-c2cccnc2)n1 [Example 133, (3R,4S)-4-((6-(4-chlorophenyl)-2-(pyridin-3-yl)pyrimidin-4-yl)amino)pyrrolidin-3-ol]
25 | > 1000 | O[C@H]1CNC[C@H]1Nc1cc(-c2ccc(Cl)cc2)nc(-c2cccnc2)n1 [Example 134, (3S,4R)-4-((6-(4-chlorophenyl)-2-(pyridin-3-yl)pyrimidin-4-yl)amino)pyrrolidin-3-ol]
26 | 10 to 100 | Clc1ccc(-c2cc(N3CCCC3)nc(-c3cccnc3)n2)cc1 [Example 135, 4-(4-chlorophenyl)-2-(pyridin-3-yl)-6-(pyrrolidin-1-yl)pyrimidine]
27 | 100 to 1000 | CC1CCCN1c1cc(-c2ccc(Cl)cc2)nc(-c2cccnc2)n1 (stereo not drawn) [Example 136, 4-(4-chlorophenyl)-6-(2-methylpyrrolidin-1-yl)-2-(pyridin-3-yl)pyrimidine]
28 | < 10 | OCC1CCN(c2cc(-c3ccc(Cl)cc3)nc(-c3cccnc3)n2)C1 (stereo not drawn) [Example 138, (1-(6-(4-chlorophenyl)-2-(pyridin-3-yl)pyrimidin-4-yl)pyrrolidin-3-yl)methanol]
29 | 10 to 100 | F[C@@H]1CCN(c2cc(-c3ccc(Cl)cc3)nc(-c3cccnc3)n2)C1 [Example 139, (R)-4-(4-chlorophenyl)-6-(3-fluoropyrrolidin-1-yl)-2-(pyridin-3-yl)pyrimidine]
30 | > 1000 | NC1CCN(c2cc(-c3ccc(Cl)cc3)nc(-c3cccnc3)n2)C1 (stereo not drawn) [Example 140, 1-(6-(4-chlorophenyl)-2-(pyridin-3-yl)pyrimidin-4-yl)pyrrolidin-3-amine]
